Structures are written as SMILES. pIC50: −log10 of the molar value. Converted amounts (≈) assume the structure as drawn. “Also recorded” adds a separate entry of the source. Like-named read-outs stand apart in the source and are kept apart here. Where only a bound is given, the exact number is not on record here.

In data set [1] the test system is T. gondii strain 2F. In words: In vitro inhibition of T. gondii (growth inhibition assay). Type of data set: cell-based, Toxoplasma gondii. Particulars: for antitoxoplasma inhibitory activity (growth inhibition assay): in words; for IC50: read-out: concentration inhibiting toxoplasma replication. As for the experimental part:
(§1) Normal human foreskin fibroblasts (American Type Culture Collection, Manassas, Va.) were used to grow tachyzoites and to test compounds for activity and cytotoxicity. Cells were maintained in Dulbecco's modified Eagle medium (Gibco, Grand Island, N.Y.) containing 10% fetal bovine serum (Atlas Biologicals, Fort Collins, Colo.), 25 mM HEPES (Gibco), 2 mM L-glutamine, 50 units of penicillin G per ml, and 50 μg of streptomycin sulfate per ml. A culture of the tachyzoites of T. gondii strain 2F, which constitutively expresses cytoplasmic β-galactosidase and is derived from strain RH (5), was a gift from Vern Carruthers, University of Michigan Medical School.
(§2) The compounds were tested for in vitro efficacy against T. gondii and cytotoxicity by previously published methods (9, 10). The median inhibitory dose (50% inhibitory dose [ID50]) and the median cytotoxic dose (50% toxic dose [TD50]) were calculated by extrapolation of the corresponding dose-response curve on a log-linear plot employing the portions of the curve that transected the 50% response point. For each compound, a therapeutic index (TI) was calculated by the formula TI=TD50/ID50.
(§3) Artemisinin was obtained from Holley Pharmaceuticals Co., Inc., Fullerton, Calif. Artemether was generously donated by Huiling Wang, University of Wuhan, China. Trimethoprim was purchased from Sigma Chemical Co. (St. Louis, Mo.). Chlorophenol red-β-D-galactopyranoside (Roche, Indianapolis, Ind.), 100 mM in 100 mM HEPES (pH 7.2), was stored frozen at −80° C. CellTiter 96 AQueous One Solution Reagent for determining cytotoxicity was purchased from Promega Corp., Madison, Wis.

In data set [2] the test system is T. gondii tachyzoites. Nature of the data set: Quantification of invasion using red/green assay (attachment/penetration). The note with it: 10 μg/ml (range 25-34 μM); FIG. 1. Type of data set: cell-based, Toxoplasma gondii. On the procedure:
FIG. 1 illustrates the quantification of invasion using red/green assay. Green bars represent internal/penetrated parasites while red bars depict external/attached parasites. Compounds were tested at 10 μg/ml (range 25-34 μM). BAPTA-AM (20 μM) and cytochalasin D (Cyt D, 2 μM) were included as positive controls for inhibition of attachment or penetration, respectively. Data are mean values±SEM of three independent experiments, counting ten random fields for each sample.
FIG. 1 illustrates the quantification of invasion using red/green assay (8). Black bars represent internal/penetrated parasites while gray bars depict external/attached parasites. Compounds were tested at 10 μg/ml (range 25-34 μM). BAPTA-AM (20 μM) and cytochalasin D (Cyt D, 2 μM) were included as positive controls for inhibition of attachment or penetration, respectively. Data are mean values±SEM of three independent experiments, counting ten random fields for each sample.

Data set [3] deals with T. gondii tachyzoites. In words: Replication inhibition assay. Type of data set: cell-based, Toxoplasma gondii. The note with it: 10 μg/ml added 2 hours after infection of HFF cells, 26 hours; FIG. 2. As for the experimental part:
FIG. 2 illustrates the replication inhibition assay. T. gondii tachyzoites are allowed to infect HFF cells for 2 hours. Following this, compounds are added to the cells for a final concentration of 10 μg/ml and the infection is allowed to progress for 26 hours. Data are compiled from ten randomly selected fields wherein number of vacuoles and number of parasites within the vacuoles are enumerated. Control represents no drug added.
FIG. 2 illustrates the replication inhibition assay (14). T. gondii tachyzoites are allowed to infect HFF cells for 2 hours. Following this, compounds are added to the cells for a final concentration of 10 μg/ml and the infection is allowed to progress for 26 hours. Data are compiled from ten randomly selected fields wherein number of vacuoles and number of parasites within the vacuoles are enumerated. Control represents no drug added.

Data set [4] concerns chloroquine-sensitive Plasmodium falciparum (NF 54). In words: Inhibition of replication of malaria parasites. Particulars: unpublished data of J. D'Angelo and G. Posner. Type of data set: cell-based.
Data set [5] relates to Normal human foreskin fibroblasts. Type of data set: cell-based. On the procedure: as §1, §2, §3
Where [6] appears, read: Toxoplasma gondii, Table 2, average of three independent experiments, read-out: ID50 (the source's name).
Where [7] appears, read: Table 1, T. gondii in human foreskin fibroblasts.
The mark [8] stands for this setting: Table 1, T. gondii in human foreskin fibroblasts, read-out: ID50 (the source's name).
Where [9] appears, read: Toxoplasma gondii, Fibroblast, Table 1, T. gondii in human foreskin fibroblasts, read-out: ID50 (the source's name).
Where [10] appears, read: Toxoplasma gondii, summary of Table 1.
Setting [11] is: Table 2, average of three independent experiments, read-out: ID50 (the source's name).

On to `CC1=C(c2nccs2)OC2O[C@]3(C)CC[C@H]4[C@H](C)CC[C@@H]1[C@@]24O3` (stereo partly drawn) [Deoxy-3a, deoxy-DART-thiaz], for which the pIC50 in data set [1] (setting [6]) is 3.02. Also, in data set [1], the “antitoxoplasma inhibitory activity (growth inhibition assay)” value is given as “little or no efficacy; also recorded: devoid of antitoxoplasma activity”. Further, the “inhibition of attachment of T. gondii tachyzoites to HFF cells” value (“inhibition of attachment … to HFF cells” below) in data set [2] is recorded as “effective in inhibition of attachment”. For the same compound, the “inhibition of T. gondii replication” value in data set [3] is “ineffective”. The antimalaria activity result in data set [4] is reported as “virtually no antimalaria activity”.

In data set [1] (setting [7]), `CC1CCC2C(C)C(CCCOC(=O)c3ccccc3)OC3OC4(C)CCC1C32OO4` (stereo not drawn) [Compound 2b] returned an ID50 of 0.6 µg/mL (≈ 1.39 µM). Also, in data set [1] (setting [8]), the pIC50 was 5.85.

Compound `COc1cc(Cc2cnc(N)nc2N)cc(OC)c1OC` [Trimethoprim, reference compound] showed an ID50 in data set [1] (setting [7]) of 5.2 µg/mL (≈ 17.9 µM). The pIC50 in data set [1] (Toxoplasma gondii, Fibroblast, read-out: ID50) was 4.75; in data set [1] (Toxoplasma gondii, read-out: ID50), 4.72. The IC50 in data set [1] (Toxoplasma gondii) was determined as 5.2 µg/mL. Besides, the “concentration of 50% cytotoxicity (TD50)” value in data set [5] (human) worked out at 60 µg/mL.

In data set [1] (setting [7]), `CO[C@H]1O[C@@H]2O[C@@]3(C)CC[C@H]4[C@H](C)CC[C@@H]([C@H]1C)[C@@]24OO3` [Artemether, reference compound] displayed an ID50 of 0.2 µg/mL (≈ 0.67 µM). Also, the results for the pIC50 in data set [1] (setting [9]) and in data set [1] (setting [6]) were 6.15 and 6.43, respectively. Moreover, the IC50 in data set [1] (setting [10]) is less than 1 µg/mL. The “concentration of 50% cytotoxicity (TD50)” value in data set [5] (human) is greater than 160 µg/mL.

In data set [1] (setting [7]), `C[C@H]1[C@@H](CCCO)O[C@@H]2O[C@]3(C)CC[C@H]4[C@H](C)CC[C@@H]1[C@@]24O3` [Deoxy-2a, Deoxy-ART-PrOH] returned an ID50 of 173 µg/mL (≈ 557 µM). In data set [1] (setting [9]), the pIC50 is 3.25. In addition, in data set [1], the “antitoxoplasma inhibitory activity (growth inhibition assay)” value is given as “virtually no inhibitory activity; also recorded: devoid of antitoxoplasma activity”. Further, the antimalaria activity result in data set [4] is “virtually no antimalaria activity”.

Turning to `CC1=C(c2nccs2)OC2OC3(C)CCC4C(C)CCC1C24OO3` (stereo not drawn) [Compound 3a, DART-Thiaz], in data set [1] (setting [11]), the pIC50 was 5.77. Also, the “inhibition of T. gondii replication” value in data set [3] is listed as “moderate inhibition”.

For the compound `CC1=C(C(=O)O)OC(C)C1C` (stereo not drawn) [Compound 3d, DART-C(O)—OH], the pIC50 in data set [1] (setting [6]) is 4.39. In data set [3], the “inhibition of T. gondii replication” value is “ineffective”.

Consider `CCNC(=O)C1=C(C)C(C)C(C)O1` (stereo not drawn) [Compound 3f, DART-C(O)—NHEt], for which the pIC50 in data set [1] (setting [6]) was 5.36. The “inhibition of attachment … to HFF cells” value in data set [2] is on record as “exception”. In addition, in data set [3], the “inhibition of T. gondii replication” value is recorded as “moderate inhibition”.

In the case of `C[C@H]1[C@@H](CCCO)O[C@@H]2O[C@]3(C)CC[C@H]4[C@H](C)CC[C@@H]1[C@@]24OO3` [Compound 2a, ART-PrOH], the ID50 in data set [1] (setting [7]) was 2.7 µg/mL (≈ 8.27 µM). The pIC50 in data set [1] (setting [9]) is 5.08. The IC50 in data set [1] (setting [10]) lay in the range of 2 to 3 µg/mL.

Regarding `CC1=C(C=O)OC(C)C1C` (stereo not drawn) [Compound 3c, DART-ald], in data set [1] (setting [6]), the pIC50 is 6.00. Further, in data set [3], the “inhibition of T. gondii replication” value is listed as “quite effective”.

As to `COC(=O)C1=C(C)C(C)C(C)O1` (stereo not drawn) [Compound 3e, DART-C(O)—OMe], in data set [1] (setting [6]), the pIC50 was 5.54. The “concentration of 50% cytotoxicity (TD50)” value in data set [5] (human) was greater than 160 µg/mL. Also, the “inhibition of T. gondii replication” value in data set [3] is listed as “moderate inhibition”.

In data set [1] (setting [7]), `CC(C)=CCCC(C)CCOCCCC1OC2OC3(C)CCC4C(C)CCC(C1C)C24OO3` (stereo not drawn) [Compound 2d] had an ID50 of 0.5 µg/mL (≈ 1.08 µM). Further, the pIC50 in data set [1] (setting [8]) is 5.96. Also, the “concentration of 50% cytotoxicity (TD50)” value in data set [5] was greater than 160 µg/mL.

`CC1CCC2C(C)C(CCCOC(=O)c3ccccc3Br)OC3OC4(C)CCC1C32OO4` (stereo not drawn) [Compound 2c] returned an ID50 in data set [1] (setting [7]) of 0.6 µg/mL (≈ 1.18 µM). For the same compound, the pIC50 in data set [1] (setting [8]) is 5.92.

Regarding `CC1=C(c2nc3ccccc3s2)OC2OC3(C)CCC4C(C)CCC1C24OO3` (stereo not drawn) [Compound 3b, DART-Benzothiazole], the pIC50 in data set [1] (setting [11]) was 6.00. For the same compound, the “inhibition of T. gondii replication” value in data set [3] is reported as “quite effective”.

The compound `C[C@@H]1CC[C@H]2[C@@H](C)C(=O)O[C@@H]3O[C@@]4(C)CC[C@@H]1[C@]32OO4` [Artemisinin] yielded an ID50 in data set [1] (setting [7]) of 2.3 µg/mL (≈ 8.15 µM). Further, the pIC50 in data set [1] (setting [9]) was 5.10. Further, the IC50 in data set [1] (setting [10]) was in the range of 2 to 3 µg/mL. Moreover, in data set [2], the “inhibition of attachment … to HFF cells” value is recorded as “exception”. Further, the “inhibition of T. gondii replication” value in data set [3] is “ineffective”.

Source of the values: patent US8431611B2, “Artemisinin derivatives” (Johns Hopkins University, priority 2006, dated 2013).
